Measured values taken from article PMC9610285 (Pharmaceutics, 2022).
Where two headings read alike, the source gives them in different places.

Settings: 1 mg single oral dose, fasting
Description: The data used in this work were obtained from four bioequivalence clinical trials conducted at the Clinical Trials Unit of the Hospital Universitario de La Princesa (UECHUP) (EUDRA-CT IDs: 2012-004433-17, 2013-002159-14, 2014-001123-77 and 2021-000315-23). […] The reference formulation (R) in all cases was Azilect® 1 mg tablets (TEVA Pharmaceuticals Europe B.V.), which was compared against different test formulations (T), all of them 1 mg tablets, except in clinical trial 3, whose test formulation was orodispersible 1 mg. The four bioequivalence trials had two periods and two sequences (TR and RT). In the first period, the volunteers randomly were administered one of the two formulations and, in the following period, after a 7-day washout period, the opposite formulation. All of them were reviewed and approved by Independent Ethics Board (IEB) of the Hospital Universitario de La Princesa, and by the Spanish Drug Agency (AEMPS). In addition, they were performed in accordance with the guidelines of the International Conference on Harmonization for Good Clinical Practice (ICH-GCP), current Spanish legislation and the Revised Declaration of Helsinki. The pharmacogenetic study (SFC-FG-2020-1) was likewise approved by the IEB of Hospital Universitario de La Princesa (registry number 4176, 9 July 2020).
In each period, the drug was administered under fasting conditions, which were maintained until 5 h after drug administration. Each subject provided 20 or 21 blood samples (depending on the clinical trial) that were extracted by BD Vacutainer® vacuum system with EDTA K2 tubes for analysis at different times between 0 h (before receiving the drug) and up to 12 h after drug intake. […] A high-performance liquid chromatography coupled to triple quadrupole mass spectrometry (HPLC-MS/MS) analytical method was used. The latter was validated according to European regulations for bioequivalence assessment, with a lower limit of quantification (LLOQ) of 10 pg/mL and a calibration range of 10–10,000 pg/mL.
Pharmacokinetic parameters were calculated with WinNonlin Professional (Scientific Consulting, Inc., Cary, NC, USA) following a non-compartmental model. The area under the curve (AUC0-t), was obtained by the trapezoidal method. The extrapolation to infinity (AUC0-∞) was determined by the sum of two partial AUCs: AUCt-∞ calculated by the ratio Ct/k, where Ct is the last detectable concentration and k the elimination slope; plus AUC0-t. Cmax and tmax were directly obtained from the plasma time-concentration curves. t1/2 was calculated as Ln2/k. Plasma clearance adjusted for bioavailability (Cl/F) was calculated as dose/AUC. Finally, the volume of distribution adjusted for bioavailability (Vd/F) was calculated by dividing Cl/F by k.
The SPSS software (v23.0, SPSS Inc., Chicago, IL, USA) was used for statistical analyses. AUC0-∞, and Cmax were divided by the dose/weight (DW) ratio to correct sex-related variability related to a varying weight. For the same purpose, Vd/F and Cl/F were divided by weight. With the purpose of normalizing their distributions, all pharmacokinetic parameters were logarithmically transformed for statistical analysis. Initially, a univariate analysis was conducted of the demographic characteristics according to sex and ethnicity, and of the pharmacokinetic parameters or ADR incidence based on sex, biogeographical group (hereinafter, “ethnicity”), genotypes and phenotypes. T-tests were used for the comparison of means for variables with two categories and ANOVA tests for variables with three or more categories, followed by a Bonferroni post-hoc. The Shapiro–Wilk test was used to address the normality of demographic characteristics. For those not following a normal distribution, the nonparametric Kruskal–Wallis test was used.

[1] = CYP1A2 *1N/*1K, *1N/*1L, *1N/*1L and *1N/*1G merged, n=4

Compound: C#CCN[C@@H]1CCc2ccccc21 [rasagiline, Rasagiline]
- lower tmax value, ABCC2 rs2273697 A/A vs G allele carriers: approximately 50%
- AUC0-∞/DW (ABCB1 rs1045642 A/A, n=23): 275.48 ± 59.65 ng·kg·h/mL/mg
- Cmax/DW (ABCB1 rs1045642 A/A, n=23): 438.76 ± 152.32 ng·kg/mL/mg
- t1/2 (ABCB1 rs1045642 A/A, n=23): 2.58 ± 0.63 h
- tmax (ABCB1 rs1045642 A/A, n=23): 0.50 ± 0.21 h
- AUC0-∞/DW (ABCB1 rs1045642 G/A, n=61): 273.00 ± 83.60 ng·kg·h/mL/mg
- Cmax/DW (ABCB1 rs1045642 G/A, n=61): 426.48 ± 179.87 ng·kg/mL/mg
- t1/2 (ABCB1 rs1045642 G/A, n=61): 2.63 ± 1.04 h
- tmax (ABCB1 rs1045642 G/A, n=61): 0.51 ± 0.27 h
- AUC0-∞/DW (ABCB1 rs1045642 G/G, n=34): 244.10 ± 63.87 (pm = 0.012) h*ng*kg/mL*mg
- Cmax/DW (ABCB1 rs1045642 G/G, n=34): 359.70 ± 127.40 ng·kg/mL/mg
- t1/2 (ABCB1 rs1045642 G/G, n=34): 2.83 ± 0.73 h
- tmax (ABCB1 rs1045642 G/G, n=34): 0.47 ± 0.19 h
- AUC0-∞/DW (ABCC2 rs2273697 A/A, n=3): 350.15 ± 86.34 ng·kg·h/mL/mg
- Cmax/DW (ABCC2 rs2273697 A/A, n=3): 579.28 ± 133.19 ng·kg/mL/mg
- t1/2 (ABCC2 rs2273697 A/A, n=3): 3.01 ± 0.49 h
- tmax (ABCC2 rs2273697 A/A, n=3): 0.22 ± 0.09 (pu = 0.005, pm = 0.001) ^& h
- AUC0-∞/DW (ABCC2 rs2273697 G/A, n=42): 264.50 ± 74.33 ng·kg·h/mL/mg
- Cmax/DW (ABCC2 rs2273697 G/A, n=42): 411.51 ± 152.39 ng·kg/mL/mg
- t1/2 (ABCC2 rs2273697 G/A, n=42): 2.59 ± 0.90 h
- tmax (ABCC2 rs2273697 G/A, n=42): 0.48 ± 0.19 h
- AUC0-∞/DW (ABCC2 rs2273697 G/G, n=73): 262.04 ± 73.57 ng·kg·h/mL/mg
- Cmax/DW (ABCC2 rs2273697 G/G, n=73): 401.58 ± 167.92 ng·kg/mL/mg
- t1/2 (ABCC2 rs2273697 G/G, n=73): 2.71 ± 0.89 h
- tmax (ABCC2 rs2273697 G/G, n=73): 0.51 ± 0.26 h
- AUC0-∞/DW (COMT rs4680 A/A, n=26): 236.37 ± 68.34 (pu = 0.018, pm = 0.008) h*ng*kg/mL*mg
- Cmax/DW (COMT rs4680 A/A, n=26): 355.69 ± 168.61 (pu = 0.012, pm = 0.035) ng*kg/mL*mg
- t1/2 (COMT rs4680 A/A, n=26): 2.74 ± 1.00 h
- tmax (COMT rs4680 A/A, n=26): 0.50 ± 0.22 h
- AUC0-∞/DW (COMT rs4680 G/A, n=56): 285.72 ± 81.43 ng·kg·h/mL/mg
- Cmax/DW (COMT rs4680 G/A, n=56): 450.03 ± 166.19 ng·kg/mL/mg
- t1/2 (COMT rs4680 G/A, n=56): 2.71 ± 0.95 h
- tmax (COMT rs4680 G/A, n=56): 0.47 ± 0.18 h
- AUC0-∞/DW (COMT rs4680 G/G, n=36): 253.96 ± 59.13 ng·kg·h/mL/mg
- Cmax/DW (COMT rs4680 G/G, n=36): 385.75 ± 140.56 ng·kg/mL/mg
- t1/2 (COMT rs4680 G/G, n=36): 2.58 ± 0.68 h
- tmax (COMT rs4680 G/G, n=36): 0.52 ± 0.32 h
- AUC0-∞/DW (CYP1A2 *1B/*1B, n=6): 226.81 ± 52.00 ng·kg·h/mL/mg
- Cmax/DW (CYP1A2 *1B/*1B, n=6): 411.84 ± 85.38 ng·kg/mL/mg
- t1/2 (CYP1A2 *1B/*1B, n=6): 1.87 ± 0.6 h
- tmax (CYP1A2 *1B/*1B, n=6): 0.42 ± 0.18 h
- AUC0-∞/DW (CYP1A2 *1B/*1F, n=36): 265.27 ± 80.68 ng·kg·h/mL/mg
- Cmax/DW (CYP1A2 *1B/*1F, n=36): 426.5 ± 183.44 ng·kg/mL/mg
- t1/2 (CYP1A2 *1B/*1F, n=36): 2.66 ± 0.9 h
- tmax (CYP1A2 *1B/*1F, n=36): 0.44 ± 0.19 h
- AUC0-∞/DW (CYP1A2 *1B/*1L, n=4): 275.25 ± 108.77 ng·kg·h/mL/mg
- Cmax/DW (CYP1A2 *1B/*1L, n=4): 392.87 ± 133.43 ng·kg/mL/mg
- t1/2 (CYP1A2 *1B/*1L, n=4): 3.32 ± 1.62 h
- tmax (CYP1A2 *1B/*1L, n=4): 0.46 ± 0.16 h
- AUC0-∞/DW (CYP1A2 *1B/*1N, n=5): 256.33 ± 116.11 ng·kg·h/mL/mg
- Cmax/DW (CYP1A2 *1B/*1N, n=5): 327.66 ± 320.93 ng·kg/mL/mg
- t1/2 (CYP1A2 *1B/*1N, n=5): 3 ± 0.78 h
- tmax (CYP1A2 *1B/*1N, n=5): 0.6 ± 0.28 h
- AUC0-∞/DW (CYP1A2 *1F/*1F, n=38): 263.28 ± 60.08 ng·kg·h/mL/mg
- Cmax/DW (CYP1A2 *1F/*1F, n=38): 403.23 ± 139.11 ng·kg/mL/mg
- t1/2 (CYP1A2 *1F/*1F, n=38): 2.69 ± 0.82 h
- tmax (CYP1A2 *1F/*1F, n=38): 0.51 ± 0.21 h
- AUC0-∞/DW (CYP1A2 *1J/*1N, n=5): 275.39 ± 91.37 ng·kg·h/mL/mg
- Cmax/DW (CYP1A2 *1J/*1N, n=5): 435.74 ± 117.78 ng·kg/mL/mg
- t1/2 (CYP1A2 *1J/*1N, n=5): 2.15 ± 0.83 h
- tmax (CYP1A2 *1J/*1N, n=5): 0.43 ± 0.09 h
- AUC0-∞/DW (CYP1A2 *1L/*1F, n=11): 285.81 ± 77.84 ng·kg·h/mL/mg
- Cmax/DW (CYP1A2 *1L/*1F, n=11): 389.59 ± 138.34 ng·kg/mL/mg
- t1/2 (CYP1A2 *1L/*1F, n=11): 2.55 ± 1.07 h
- tmax (CYP1A2 *1L/*1F, n=11): 0.64 ± 0.48 h
- AUC0-∞/DW (CYP1A2 *1L/*1L, n=6): 301.28 ± 89.3 ng·kg·h/mL/mg
- Cmax/DW (CYP1A2 *1L/*1L, n=6): 518.16 ± 158.15 ng·kg/mL/mg
- t1/2 (CYP1A2 *1L/*1L, n=6): 3.06 ± 0.38 h
- tmax (CYP1A2 *1L/*1L, n=6): 0.53 ± 0.17 h
- AUC0-∞/DW [1]: 220.53 ± 87.92 ng·kg·h/mL/mg
- Cmax/DW [1]: 355.79 ± 242.1 ng·kg/mL/mg
- t1/2 [1]: 2.94 ± 0.69 h
- tmax [1]: 0.5 ± 0.14 h
- AUC0-∞/DW (CYP2C19 µM, n=3): 205.53 ± 82.32 ng·kg·h/mL/mg
- Cmax/DW (CYP2C19 µM, n=3): 347.93 ± 233.78 ng·kg/mL/mg
- t1/2 (CYP2C19 µM, n=3): 1.75 ± 0.67 h
